Test results reported in patent US10155743B2, “Glutarimide derivatives, use thereof, pharmaceutical composition based thereon and methods for producing glutarimide derivatives” (OBSCHESTVO S OGRANICHENNOI OTVETSTVENNOSTIYU …, priority 2013, dated 2018).
Where two headings read alike, the source gives them in different places.

Columns and labels:
[1] = system: Coxsackie A2-virus (strain HCXV A2); test: Antiviral activity against Coxsackie virus in vivo (mortality of infected mice); set-up: species or system white mice; conditions: for inhibition in vivo at 30 mg/kg / mortality at 30 mg/kg: Mus musculus, po; for inhibition in vivo at 30 mg/kg: 168 h, read-out: Protective index (%); for mortality at 30 mg/kg: 360 h, read-out: Total mortality rate, %; for Average expectancy life (days), Vs. control: difference to virus control
[2] = system: mucous membrane of nasal passages, formalin-induced acute rhinosinusitis; test: Acute rhinosinusitis rat model (induced by intranasal 7.5% formalin solution); format: in vivo, Wistar rats; conditions: rats; for Macroscopic changes in the mucous membrane of nasal passages: Muculent or mucopurulent catarrh (number of animals) / Macroscopic changes in the mucous membrane of nasal passages: Without changes (number of animals): tested compounds 27 mg/kg for 7 days, count out of n of the group
Method: Morphological studies of histologic preparations were conducted with a Leica DMLS light-optical microscope (Leica Microsystems, Germany). Micro-morphometric assessment was performed by using an ocular micrometer on a Leica DMLB microscope.
Acute rhinosinusitis was induced by intranasal administration of 20 μl of 7.5% formalin solution (aqueous solution comprising 40% formaldehyde, 8% methyl alcohol, and 52% water) to each nasal passage of rats.
Administration of formalin to rat nasal passages leads to the dissemination of inflammation to adjacent tissues, resulting in a clinical pattern similar to the symptoms of rhinosinusitis in a human.
After an acclimatization period, the following groups were formed: • intact animals administered intragastrically a saline solution in an amount of 0.2 ml, the induction of acute rhinosinusitis was not performed; • a control group consisted of the animals administered intragastrically a saline solution in an amount of 0.2 ml for 7 days after induction of acute rhinosinusitis; • animals administered intramuscularly dexamethasone at a dose of 0.33 mg/kg for 7 days after induction of acute rhinosinusitis; and • animals administered the tested compounds at a dose of 27 mg/kg for 7 days after induction of acute rhinosinusitis.
Clinical observation of each animal was performed every day at least twice daily.
In the experiment with Wistar rats, the induction of acute rhinosinusitis by administration of a 7.5% formalin solution to nasal passages caused in the control group of animals pronounced pathological changes characterizing the development of an acute inflammation process in the nasal mucous. The caused pathology was characterized by congestion, hyperplasia, focal necrosis of the nasal meatus mucous membrane, an increased number of caliciform cells, pronounced infiltration by mononuclear cells and leucocytes, and mucus hyperproduction by submucosal glands.
The mucous and submucous membranes of both nasal passages (respiratory and olfactory regions) of the experimental animals were subjected to a morphological analysis to evaluate a specific activity of the compounds.
For microscopic examination, the sections were stained with hematoxylin and eosin. Detection of acid mukopolysaccharides, the production of which is increased in an inflammation, was performed by histochemical staining of the preparation with Alcian Blue (pH 2.5). The comparison and histological evaluation of changes were performed versus the group of intact rats.
After slaughter, the gross appearance of inflammation in the nasal passages was studied in each animal. Histological, hystochemical and morphological studies of rats were intended to evaluate the following characteristics of nasal passages: congestion of the mucous membrane; hyperplasia and necrosis of nasal epithelium, the number of caliciform cells within 1 mm of the mucous membrane of the nasal septum, and the character of inflammation.
In this study, the efficiency of the mucociliary system was evaluated by the number of caliciform cells and, as a consequence, microscopic changes in the mucous membrane of the nasal passages.

[3] = system: influenza virus strain A/California/07/09 (H1N1) pdm09; test: animal or person; format: in vivo, white outbred female mice; conditions: unidentified influenza virus, H1N1, in Mus musculus, po, 336 h, read-out: Mortality rate, %
[4] = mice, 10LD50 HCXV A2, 30 mg/kg orally once daily for 7 days
[5] = mice, 10LD50 HCXV A2 i.m., 30 mg/kg orally once daily for 7 days from 24 h after infection, 15 days monitoring

| Compound | inhibition in vivo at 30 mg/kg [1, 4] | mortality at 30 mg/kg [1, 5] | Average expectancy life (days), Relative [1, 4] | Average expectancy life (days), Vs. control [1, 4] | Macroscopic changes in the mucous membrane of nasal passages: Muculent or mucopurulent catarrh (number of animals) [2] | Macroscopic changes in the mucous membrane of nasal passages: Without changes (number of animals) [2] | other results |
| --- | --- | --- | --- | --- | --- | --- | --- |
| NC1CCC(=O)N(CCc2cnc[nH]2)C1=O (centres unmarked) [Compound 67] | 50% | 35.7% | 27.0 days | +16.2 days | – | – | – |
| O=C1CCCC(=O)N1CCc1ccccn1 [Compound 13] | 36% | 46.7% | 19.0 days | +8.3 days | – | – | – |
| O=C1CCCC(=O)N1CCc1nc2ccccc2s1 [Compound 7, 1-[2-(1H-benzothiazol-2-yl)ethyl]piperidine-2-dione] | – | – | – | – | 13 | 5 | – |
| O=C1CCCC(=O)N1CCc1nnn[nH]1 [Compound 36] | 27% | 53.3% | 16.7 days | +6.0 days | – | – | mortality at 30 mg/kg [3]: 60% |
| O=C1CCCC(=O)N1CCN1CCCCC1 [Compound 14] | – | – | 21.4 days | +10.4 days | – | – | inhibition in vivo at 30 mg/kg [1]: 36%; mortality at 30 mg/kg [1]: 50% |
| CC1CCC(=O)N(CCc2c[nH]cn2)C1=O (centres unmarked) [Compound 56] | – | – | – | – | 3 | 5 | – |
| O=C(O)C(Cc1ccccn1)N1C(=O)CCCC1=O (centres unmarked) [Compound 83] | – | – | – | – | – | – | mortality at 30 mg/kg [3]: 45% |
| O=C1CCCC(=O)N1CCC1COCCN1 (centres unmarked) [Compound 90] | 50% | 35.7% | 25.9 days | +15.1 days | – | – | – |
| O=C1CC(O)CC(=O)N1CCc1cnc[nH]1 [Compound 28] | – | – | – | – | 4 | 4 | – |
| O=C1CCCC(=O)N1CCc1nc2ccccc2[nH]1 [Compound 124] | – | – | – | – | 8 | 4 | The number of caliciform cells within 1 mm of the mucous membrane of the nasal septum ([2]; tested compounds 27 mg/kg for 7 days after induction, M ± m): 37.6 ± 1.4 |
| CC1CCC(=O)N(C(Cc2cnc[nH]2)C(=O)O)C1=O (centres unmarked) [Compound 70] | – | – | – | – | 4 | 4 | – |
| O=C1CCCC(=O)N1CCC1CNCCO1 (centres unmarked) [Compound 89] | 27% | 53.3% | 17.7 days | +7.0 days | – | – | – |
| O=C1CCCC(=O)N1CCCn1ccnc1 [Compound 24] | – | – | – | – | – | – | mortality at 30 mg/kg [3]: 55% |
